“Also recorded” adds a separate entry of the source.
What was measured:
PKC = PKC ELISA-based kinase assay of nuclear or cytoplasmic extract from MCF-IM; format: cell-based, human; settings: assays without specific immunoprecipitates, global PKC activity (FIG. 6B)
Protocol: (§1) PKC activity assay were purchased from Enzo Life Sciences (DI-EKS-420A) and assays were performed according to the manufacture's protocol as previously described (Sutcliffe, 2012, supra).
(§2) PKC-θ and PKC-β activity assays (Enzo Life Sciences; DI-EKS-420A) were performed according to the manufacturer's protocol and as previously described (Sutcliffe et. Al., 2012. Chromatinized Protein Kinase C-theta: Can It Escape the Clutches of NF-kappaB? Front Immunol 3:260).

PKC-θ [1] = biological target: PKC-θ (Homo sapiens, UniProt Q04759); assay: PKC ELISA-based kinase assay, in-vitro PKC-θ activity; format: biochemical; settings: FIG. 6A
Sequence of PKC-θ (Homo sapiens, UniProt Q04759) (Q04759 whole entry): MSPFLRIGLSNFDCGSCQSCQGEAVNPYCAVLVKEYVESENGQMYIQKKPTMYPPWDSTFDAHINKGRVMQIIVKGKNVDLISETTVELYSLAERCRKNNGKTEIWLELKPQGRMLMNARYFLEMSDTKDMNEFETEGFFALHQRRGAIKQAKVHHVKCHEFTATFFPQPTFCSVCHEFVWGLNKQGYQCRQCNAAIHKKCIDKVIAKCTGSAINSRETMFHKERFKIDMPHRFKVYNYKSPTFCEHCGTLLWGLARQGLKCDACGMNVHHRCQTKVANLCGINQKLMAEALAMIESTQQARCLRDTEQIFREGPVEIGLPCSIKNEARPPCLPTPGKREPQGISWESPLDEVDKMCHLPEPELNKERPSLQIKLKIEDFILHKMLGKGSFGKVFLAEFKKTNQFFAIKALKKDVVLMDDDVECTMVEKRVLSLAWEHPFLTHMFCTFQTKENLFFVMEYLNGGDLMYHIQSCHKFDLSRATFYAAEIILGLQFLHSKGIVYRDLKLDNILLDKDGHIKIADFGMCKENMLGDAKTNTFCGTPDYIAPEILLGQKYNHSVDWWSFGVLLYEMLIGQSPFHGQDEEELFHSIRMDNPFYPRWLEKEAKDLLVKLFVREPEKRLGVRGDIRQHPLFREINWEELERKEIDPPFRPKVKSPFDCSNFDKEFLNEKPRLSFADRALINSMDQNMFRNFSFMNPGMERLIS
Protocol: as §1, §2

MCF-7 cells [2] = assay: FACS analysis of CD44high/CD24low CSC-like subpopulation in MCF-IM model; format: cell-based, human; settings: for CSC formation (CD44high/CD24low, FACS): compound 27 1 uM for 24 hours pre-treatment, PMA 0.65 ng/ml 60 h; for CD44 high CD24 low CSC-like subpopulation (FACS): bisindolylmaleimide-I 100 nm and 1 μM or Go6976 1 μM prior to PMA 60 hrs
Protocol: (§3) The adherent human mammary adenocarcinoma MCF-7 and MDA-MB-231 cells were cultured in low glucose DMEM (Gibco) and both supplemented with 10% FCS, 2 mM L-glutamine and 0.1% PSN antibiotics. Cells were stimulated with 0.65 ng/ml of phorbol 12-myristate 13-acetate (PMA) (Sigma-Aldrich) or 20 ng/ml of TGF-β (R&D systems) for the times indicated. For Bisindolylmaleimide-I (Calbiochem) or PKC-θ peptide inhibitor (Calbiochem) studies, cells were pre-treated with 1 μM or 30 μM of inhibitor respectively for 1 h prior to stimulation in MCF-7 cells. In case of MDA-MB-231, cells were treated with 4 μM or 30 μM Bisindolylmaleimide-I or PKC-θ peptide inhibitor respectively.
(§4) To separate CSC from non-CSC (NCSC), florescence activated cell sorting (FACS) was performed on single-cell suspensions that were stained with anti-CD44-APC (559942, BD Biosciences) and anti-CD24-PE antibodies (555428, BD Biosciences) along with Hoechst 33258 to monitor cell viability. As used throughout this work, CSC are defined by minority CD44^high/CD24^low, whereas NCSC are defined by rest of the cell populations.

NF-κB p65 = assay: Immunoblotting of MCF-IM nuclear and cytoplasmic fractions for NF-κB p65; format: cell-based, human
Protocol: Immunoblot analysis was performed according to the manufacturer's protocol and as previously described (Rao et al., 2003 c-Rel is required for chromatin remodeling across the IL-2 gene promoter. Journal of immunology 170:3724-3731.) with anti-PKC-θ (sc-212, SantaCruz), anti-p65 (ab7970, Abcam), anti-p65 phospho (ser-468) (3039, Cell Signaling), anti-p65 phospho (ser-536) (3031, Cell Signaling) and RNA Pol II(c-21) (ab817, Abcam) antibodies.

NF-κB p50 and p65 = assay: NF-κB activity assay (TransAM NF-κB Family kit), MCF-IM nuclear extracts; format: cell-based, human; settings: MCF-IM treated with C27 vs vehicle
Protocol: TransAM NF-κB Family kit was used for NF-κB activity assays (43296, Active Motif). Assays were performed according to the manufacturer's guidelines. 5 μg protein from MDA-MB231 or MCF-IM derived whole cell, nuclear and cytoplasmic extracts were used in triplicate for the assays. Raji nuclear extract was used as a positive control Wild-type and mutated consensus oligonucleotides were also used as a negative and positive controls respectively.

MCF-7 cells [3] = assay: TaqMan real time PCR transcript analysis of inducible EMT/CSC genes in MCF-IM model; format: cell-based, human; settings: for transcription of key inducible EMT/CSC genes (laminin-5, uPAR, CD44): 1 hour prior to PMA 60 hrs
Excerpt: (§5) Human TaqMan™ primer sets used were: CD44, Hs00153304, CD24, Hs00273561, uPAR, Hs00182181, Laminin-5, Hs00194333, Zeb-1, Hs00611018, Fibronectin, Hs00415006 and Integrin-β, Hs00168458 (Applied Biosystems). Primers used for SYBR Green real-time PGR are: Zeb1 (sense: 5′-[…]-3′ and antisense: 5′-[…]-3′) and Cyclophilin A (sense: 5′-[…]-3′ and antisense: 5′-CACCACATGCTTGCCATCC-3′).
(§6) Total RNA was extracted using TRIzol® Reagent (Invitrogen) and first strand cDNA was synthesized using the Superscript™ III RNase H-reverse transcriptase kit (Invitrogen). TaqMan® Gene Expression Assays and SYBR Green real-time PCR were performed as previously described (Sutcliffe et al., 2009, Molecular and Cellular Biology, 29: 1972-86). MicroRNA assays were performed with the TaqMan® MicroRNA Reverse Transcription Kit (ABI 4366596) and the data were normalized to RNU6B as previously described in Sutcliffe et al. ([…], Molecular Cell 41:704-719).

MCF-7 cells [4] = assay: EMT morphology by phase contrast microscopy in MCF-IM model; format: cell-based, human
Protocol: The adherent human mammary adenocarcinoma MCF-7 and MDA-MB-231 cells were cultured in low glucose DMEM (Gibco) and both supplemented with 10% FCS, 2 mM L-glutamine and 0.1% PSN antibiotics. […] For Bisindolylmaleimide-I (Calbiochem) or PKC-θ peptide inhibitor (Calbiochem) studies, cells were pre-treated with 1 μM or 30 μM of inhibitor respectively for 1 h prior to stimulation in MCF-7 cells. In case of MDA-MB-231, cells were treated with 4 μM or 30 μM Bisindolylmaleimide-I or PKC-θ peptide inhibitor respectively.
(§7) phase contrast microscopy was performed where cells were viewed at ×4 magnification (wound healing assay) or ×10 magnification (EMT) using an Olympus fluorescence 1X^71 microscope (Olympus) and images were captured using DPController software (2002 Olympus Optical Co. LTD) and analysed using Photoshop CS3 (Adobe Systems Inc.). Scans were taken with a 10 μm scale bar.

MDA-MB 231 cells [5] = assay: FACS analysis of CD44high/CD24low CSC-like subpopulation in basal/metastatic model; format: cell-based, human; settings: bisindolylmaleimide-I 4 μM
Protocol: as §3, §4

MCF-7 cells [6] = assay: Mammosphere assay in MCF-IM model; format: cell-based, human; settings: 1 μM for 1 hr prior to PMA stimulation, 6 days; mammospheres larger than 60 μm counted
Protocol: Mammosphere culture media components were purchased from StemCell Technologies and mammosphere assays were performed as recommended by the manufacturer's guidelines. Briefly, 40,000 cells/2 ml cell dilutions were then prepared and 2 ml of cells were seeded in the 6 well-ultralow adherent, flat bottom plates (Costar). Mammospheres larger than 60 μm were counted per well on day 7 and pictures were taken.

MDA-MB 231 cells [7] = assay: EMT morphology by phase contrast microscopy in basal/metastatic model; format: cell-based, human; settings: Bisindolylmaleimide 4 μM
Protocol: as §3, §7

PKC-θ [8] = assay: ChIP assay of PKC-θ chromatin association at CSC inducible gene promoters in MCF-IM model; format: cell-based, human
Protocol: ChIP buffers were purchased from Upstate Biotechnology and ChIP assays were performed according to the protocol supplied by Upstate Biotechnology as previously described (Sutcliffe et al., 2011, Molecular Cell. 41:704-719 ). Antibody used were: Anti-PKC-θ (Santa Cruz, sc-212), Anti-PKC-θ Phospho s695 (Abcam, ab76568) and Pol II c-21 (Abcam, ab817), Promoter primers used for RT-PCR were human CD44 (Fwd: […], Rev: […]), uPAR(Fwd: […], Rev: […]) and IL-6 (Fwd: […], Rev: […]). Sequential ChIP assays performed as described previously by Sutcliffe et al., (2011, Molecular Cell. 41: 704-719).

MDA-MB 231 cells [9] = assay: TaqMan real time PCR transcript analysis of EMT/CSC genes in basal/metastatic model; format: cell-based, human; settings: bisindolylmaleimide-I 4 μM
Excerpt: as §5, §6

CC(C)[C@@](C)(O)[C@@H]1CN(c2nc(-c3n[nH]c4ncccc34)c(F)cc2Cl)CCN1 [Compound C27]
PKC-θ activity in nuclear and cellular extracts from MCF-IM pre-treated with C27 (PKC): abrogated PKC-θ activity | PKC-θ activity, in-vitro PKC-θ activity assay (PKC-θ [1]): abrogated PKC-θ activity | CSC formation (CD44high/CD24low, FACS) (MCF-7 cells [2]): abolished CSC formation | CSC formation (CD44high/CD24low, FACS) (MCF-7 cells [2]; listed as compound 27): prevents CSC formation | p65 in the cytoplasmic fraction (NF-κB p65; C27 treated epithelial and mesenchymal cells, cytoplasmic fraction): global accumulation of p65 was observed in the cytoplasmic fraction | p65 phosphorylation at serine 468 in nuclear extracts (NF-κB p65; MCF-IM nuclear extracts, with or without compound 27): this phosphorylation was inhibited | p65 abundance in the nuclei (pan-p65 antibody) (NF-κB p65; epithelial and mesenchymal state, nuclear fraction): inhibited p65 abundance in the nuclei | p50 nuclear activity (NF-κB p50 and p65): significantly decreased | p65 nuclear activity (NF-κB p50 and p65): significantly decreased | transcription of CSC inducible genes (MCF-7 cells [3]; C27 treatment, FIG. 6D): abolished

Cn1c2ccccc2c2c3c(c4c5ccccc5n(CCC#N)c4c21)CNC3=O [Go6976]
PMA-induced EMT-like morphological changes (MCF-7 cells [4]; pre-incubation with Go6976): did not prevent PMA-induced EMT-like morphological changes | CD44 high CD24 low CSC-like subpopulation (FACS) (MCF-7 cells [2]): but not Go 6976 inhibits | PMA-induced CSC formation (MCF-7 cells [2]; pre-incubation with Go6976): did not prevent | transcription of key inducible EMT/CSC genes (laminin-5, uPAR, CD44) (MCF-7 cells [3]; 1 μM): failed to inhibit transcription of key inducible EMT/CSC genes

CCCCCCCCCCCCCC(=O)O[C@@H]1[C@@H](C)[C@@]2(O)[C@@H](C=C(CO)C[C@]3(O)C(=O)C(C)=C[C@@H]23)[C@@H]2C(C)(C)[C@]12OC(C)=O [PMA, Phorbol 12-Myristate 13-Acetate]
EMT (percentage of cells undergoing EMT, morphology) (MCF-7 cells [4]; PMA 20 ng/mL for 60 hr, compared with TNF-α, EGF, IL-6, TGF-β): results in maximal EMT; also recorded: caused highest EMT changes | generation of CD44high/CD24low CSC like cells (MCF-7 cells [2]; induction of PKC pathway by PMA 0.65 ng/mL 60 hr): results in the generation of CD44^high/CD24^low-CSC like cells

CN(C)CCCn1cc(C2=C(c3c[nH]c4ccccc34)C(=O)NC2=O)c2ccccc21 [bisindolylmaleimide-I, Bisindolylmaleimide-I]
EMT (morphology) (MCF-7 cells [4]; bisindolylmaleimide 1 μM, 1 hr pre-treatment before PMA stimulation 60 hrs): inhibits EMT | CD44 high CD24 low CSC-like subpopulation (FACS) (MDA-MB 231 cells [5]): inhibits CD44 high CD24 low-CSC-like subpopulation | mammosphere formation (MCF-7 cells [6]): reduce mammosphere formation | CD44 high CD24 low CSC-like subpopulation (FACS) (MCF-7 cells [2]): only very high concentration of bisindolylmaleimide-I | EMT (morphology) (MDA-MB 231 cells [7]): inhibits EMT | binding of PKC-θ on the CD44 gene promoter (ChIP) (PKC-θ [8]; as worded in Example 4): reduction of binding of PKC-θ on the CD44 gene promoter | PKC-θ chromatin association across the uPAR promoter (ChIP) (PKC-θ [8]; bisindolylmaleimide-I 1 μM 1 hr pre-incubation, or siRNA 48 hrs, then PMA 60 hrs): reduces its chromatin association across the uPAR promoter | transcription of key inducible EMT/CSC genes (laminin-5, uPAR, CD44) (MDA-MB 231 cells [9]): inhibits transcription of key inducible EMT/CSC genes | transcription of key inducible EMT/CSC genes (laminin-5, uPAR, CD44) (MCF-7 cells [3]; 100 nM): cannot inhibit transcription of key inducible EMT/CSC genes | transcription of key inducible EMT/CSC genes (laminin-5, uPAR, CD44) (MCF-7 cells [3]; 1 μM): inhibits transcription of key inducible EMT/CSC genes

— patent US10124001B2, “Stem cell modulation II” (University of Canberra, priority 2013, dated 2018)
